By pIC50 is commonly meant the IC50 on a negative log10 scale, so that one unit is a factor of ten.

pIC50: −log10 of the molar value.

The text below walks through data of patent publication US20230295235A1, “COMPOUNDS TARGETING ALPHA4-BETA7 INTEGRIN” (ZEALAND PHARMA A/S, priority 2020, published 2023).

The target of assay [1] is T1, (α4β7-negative Th memory cells) (Homo sapiens, UniProt P05556+P13612).
T1 construct: endogenous in cells; host or cells: human whole blood
In words: Competition assay: inhibition of biotinylated rhVCAM-1-Fc binding to α4β7-negative Th memory cells in whole blood (FACS receptor occupancy). The class given is cell-based. Particulars: single donor, 4 mM MnCl2, α4β7-negative Th memory cells, read-out: IC50, VCAM binding. On the procedure: The compound of Example 1 was used in competition assay on CD4+ integrin α4+β7-|o memory T cells.
Receptor occupancy in primary cells was determined by measuring the amount of biotinylated human recombinant MAdCAM-1-Fc or human recombinant VCAM-1-Fc bound to selected cell populations using flow cytometry. Human recombinant MAdCAM-1-Fc or human recombinant VCAM-1-Fc (R&D systems) were biotinylated using commercially available reagents and protocol (Pierce).
Whole blood was collected from human donors in sodium heparin tubes. A volume of 100 µL of blood was incubated with the compound of Example 1 and 4 mM MnCl2 for 1 hour at room temperature. Cells were washed twice with 1 mL of 1X Dulbecco’s phosphate buffered saline (DPBS) calcium magnesium free (CMF) (ThermoFisher Scientific) and resuspended in 100 µL of DPBS CMF. […]
Fluorescence-activated cell sorting (FACS) data was acquired by electronic gating on the basis of forward versus side scatter. […] Cell population were determined using the following markers: CD45+, CD3+, CD4+,CD45RO+, CD49d+, integrin β7, biotinylated ligands.
Compound receptor occupancy was defined as the decrease in the number of integrin β7+ or integrin β7-lo cells binding biotinylated rhMAdCAM-1 or rhVCAM-1, respectively. Receptor occupancy was calculated with the following equation: […]

Assay [2] has as its system integrin α4β7+ T helper memory lymphocytes in mesenteric lymph nodes. The experiment in a line: In vivo T lymphocyte trafficking analysis in DSS mouse model of colitis. Here is the method: Animal care: The animal care facility employed is accredited by the Canadian Council on Animal Care (CCAC). This study was approved by a certified Animal Care Committee and complied with CACC standards and regulations governing the use of animals for research. The animals were housed under standardized environmental conditions. A standard certified commercial rodent diet was provided ad libitum. Tap water was provided ad libitum at all times.
Dextran sulfate sodium (DSS) was administered to C57BL/6 female mice for five days through addition to their drinking water at 3%. Body weight and disease activity index (“DAI”) were measured on day 5 in order to distribute DSS-treated animals in uniform groups prior to dosing. DAI was scored based on the severity of three specific symptoms associated with colitis: 1- blood in stool (negative hemoccult, positive hemoccult, blood traces in stool visible, rectal bleeding); 2- stool consistency (normal, soft but still formed, very soft, diarrhea); 3- body weight loss.
From day 6 to day 9, the compound of Example 1 or the vehicle were administered orally daily at 5 mL/kg. […] Cell populations were then analyzed using FACSCanto cytometer and gating on CD4+, CD44^hi, CD45RB^low, α4β7+.
Statistical analysis was performed using GraphPad Prism. Differences among groups were evaluated by two-way ANOVA, with a 95% confidence interval. […]

T1 sequence (P13612 34-1032): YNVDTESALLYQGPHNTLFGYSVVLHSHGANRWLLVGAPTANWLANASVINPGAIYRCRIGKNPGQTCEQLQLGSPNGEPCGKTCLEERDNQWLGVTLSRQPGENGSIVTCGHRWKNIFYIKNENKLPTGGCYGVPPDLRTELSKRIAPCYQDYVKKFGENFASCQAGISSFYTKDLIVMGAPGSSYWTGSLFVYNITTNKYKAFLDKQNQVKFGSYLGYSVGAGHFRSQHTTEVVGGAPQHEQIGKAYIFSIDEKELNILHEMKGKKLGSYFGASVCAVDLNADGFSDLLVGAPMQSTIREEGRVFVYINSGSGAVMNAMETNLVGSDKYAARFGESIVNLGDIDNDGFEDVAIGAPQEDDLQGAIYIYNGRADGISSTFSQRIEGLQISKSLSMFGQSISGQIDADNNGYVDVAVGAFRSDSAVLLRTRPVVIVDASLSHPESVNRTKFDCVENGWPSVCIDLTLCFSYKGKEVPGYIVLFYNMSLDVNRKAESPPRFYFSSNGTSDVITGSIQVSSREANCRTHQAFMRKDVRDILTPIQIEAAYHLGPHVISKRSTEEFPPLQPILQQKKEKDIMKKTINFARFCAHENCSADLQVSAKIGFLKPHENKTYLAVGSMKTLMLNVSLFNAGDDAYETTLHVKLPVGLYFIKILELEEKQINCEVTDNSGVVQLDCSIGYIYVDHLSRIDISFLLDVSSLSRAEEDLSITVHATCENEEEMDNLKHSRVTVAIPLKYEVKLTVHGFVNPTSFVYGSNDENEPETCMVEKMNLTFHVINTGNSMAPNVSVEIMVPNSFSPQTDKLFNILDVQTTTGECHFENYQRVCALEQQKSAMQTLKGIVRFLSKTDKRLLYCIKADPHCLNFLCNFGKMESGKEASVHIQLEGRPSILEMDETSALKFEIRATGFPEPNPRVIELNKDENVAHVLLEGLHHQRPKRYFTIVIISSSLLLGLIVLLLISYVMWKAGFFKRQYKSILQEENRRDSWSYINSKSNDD
T1 sequence (P05556 21-798): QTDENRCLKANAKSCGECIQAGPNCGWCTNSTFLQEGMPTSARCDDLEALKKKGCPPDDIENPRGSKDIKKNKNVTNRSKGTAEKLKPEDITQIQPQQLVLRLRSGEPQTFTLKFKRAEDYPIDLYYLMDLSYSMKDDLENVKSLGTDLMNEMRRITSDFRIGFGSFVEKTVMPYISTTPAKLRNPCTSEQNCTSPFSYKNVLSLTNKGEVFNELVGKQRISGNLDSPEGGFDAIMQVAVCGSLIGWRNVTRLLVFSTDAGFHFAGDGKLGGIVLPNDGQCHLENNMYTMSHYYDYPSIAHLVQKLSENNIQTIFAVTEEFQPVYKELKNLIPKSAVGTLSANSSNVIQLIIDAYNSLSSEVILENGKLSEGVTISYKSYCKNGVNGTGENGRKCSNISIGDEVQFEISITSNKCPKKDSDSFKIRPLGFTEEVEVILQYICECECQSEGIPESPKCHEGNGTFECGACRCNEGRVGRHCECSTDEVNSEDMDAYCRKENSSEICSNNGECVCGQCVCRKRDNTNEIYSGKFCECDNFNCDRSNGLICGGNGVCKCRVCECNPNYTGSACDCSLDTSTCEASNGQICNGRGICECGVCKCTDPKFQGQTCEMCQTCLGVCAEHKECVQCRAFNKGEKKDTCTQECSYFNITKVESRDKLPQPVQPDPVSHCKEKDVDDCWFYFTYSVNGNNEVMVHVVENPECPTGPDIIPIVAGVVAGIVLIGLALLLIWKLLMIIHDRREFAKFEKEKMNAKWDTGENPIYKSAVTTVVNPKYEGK

Regarding `CC(C)C[C@@H]1NC(=O)c2ccc(-c3ccc(N4CCN(C(=O)c5ccccc5-c5ccccc5C(=O)N5CCN(c6ccc(-c7ccc8cc7CNC(=O)[C@@H]7CCCN7[C@H](C(=O)NC(C)(C)C)[C@H](C)NC(=O)[C@H]([C@@H](C)O)NC(=O)[C@H](CC(=O)O)NC(=O)[C@H](CC(C)C)NC8=O)cc6)CC5)CC4)cc3)c(c2)CNC(=O)[C@@H]2CCCN2[C@H](C(=O)NC(C)(C)C)[C@H](C)NC(=O)[C@H]([C@@H](C)O)NC(=O)[C@H](CC(=O)O)NC1=O` [Example 1, 2,2′-((S,S,S,S,S,S,1^2,8S,11S,14S,17S,18S)-((([1,1′-Biphenyl]-2,2′-Dicarbonyl)-Bis(Piperazine-4,1-Diyl))Bis(4,1-Phenylene))Bis(18-(Tert-Butylcarbamoyl)-14-((R)-1-Hydroxyethyl)-8-Isobutyl-17-Methyl-2,6,9,12,15-Pentaoxo-3,7,10,13,16-Pentaaza-1(2,1)-Pyrrolidina-5(1,3)-Benzenacyclooctadecaphane-5^6,11-Diyl))-Diacetic Acid], the pIC50 in assay [1] is roughly 6.22. Also, the “reduction in α4β7+ T cells in the mesenteric lymph nodes” value in assay [2] (100 mg/kg orally daily day 6 to 9, DSS-treated C57BL/6 female mice, vs DSS alone) came to 60%. Moreover, in assay [2] (10, 30 or 100 mg/kg orally daily day 6 to 9, DSS-treated mice), the “detection of integrin α4β7+ T helper memory lymphocytes in the mesenteric lymph nodes (MLN)” value was “reduced the detection of integrin α4β7+ T helper memory lymphocytes”.
